PubChem BioAssay AID2305 (GlaxoSmithKline (GSK), 2010)
pIC50: −log10 of the molar value.

The molecules below were run on P. falciparum 3D7 growth, pLDH absorbance (assay: P. falciparum 3D7 growth inhibition, dose response, strain 3D7 (AID 2305)).

| Structure (SMILES) | pIC50 |
| --- | --- |
| COc1ccc2nccc([C@@H](O)CN3CCC(NC(=O)c4cc5cccnc5[nH]4)CC3)c2c1 | 6.05 |
| CCCc1cn2c3c(cc(C(=O)N[C@@H](Cc4ccccc4)[C@H](O)CNC4CCCCC4)cc13)N(C)S(=O)(=O)CC2 | 7.15 |
| CCNCc1cccc(-c2ccc3ccnc(N)c3c2)c1 | 7.30 |
| Cc1cc(-c2ccc3c(c2)CCN(CCC2CCC(NC(=O)/C=C/c4ccc(F)cc4)CC2)CC3)on1 (stereo not drawn) | 6.14 |
| COc1c(C2CCN(CCCCNC(=O)c3noc(-c4ccc(C#N)cc4)n3)CC2)ccc2c1CCCC2 | 6.11 |
| Cc1ccc(CC(C)NCC(O)c2cccc(C(F)(F)F)c2)c(C)c1 (stereo not drawn) | 6.15 |
| Cn1cncc1C(=O)Nc1cccc(-c2csc(-c3nc4ccccc4[nH]3)c2)c1 | 6.35 |
| CC(C)CNC(=O)c1ccnc(-c2ccc(CNCCCc3ccccc3)cc2)c1 | 6.14 |
| C(=Cc1nc2ccccc2s1)c1ccc2c(c1)OCCO2 | 6.41 |
| CN1CCN(c2nsc3ccc(-c4ccc(NC(=O)Nc5ccccc5)cc4)cc23)CC1 | 6.74 |
| O=[N+]([O-])c1cccc(CNC2CCN(Cc3ccc4ccccc4c3)CC2)c1 | 6.12 |
| Fc1cccc(COc2ccc(Nc3ncnc4sc(C#Cc5ncc[nH]5)cc34)cc2Cl)c1 | 6.89 |
| O=C(Nc1ccc(S(=O)(=O)N2CCCC2)cc1)c1cc(-c2cccnc2)nc2ccc(Cl)cc12 | 6.52 |
| CCCC(C)Nc1nc(C)cc(N[C@@H](Cc2ccccc2)C(=O)Nc2ccccc2)n1 (stereo partly drawn) | 6.07 |
| COc1cc(C(F)(F)F)c2cc(CNCCCNc3nc4ccccc4[nH]3)[nH]c2c1 | 6.51 |
| CCNC(=O)c1ccc(-n2nc(C)cc2-c2ccccc2)cc1 | 5.95 |
| Cc1cc(N[C@@H](Cc2ccccc2)C(=O)Nc2ccccc2)nc(NCC2CCCCC2)n1 | 6.12 |
| CCCCOP(=O)(OCCCC)C(=Cc1ccc(O)c2ccccc12)P(=O)(OCCCC)OCCCC | 5.97 |
| CC(C)(C)c1ccc(-c2cc(C(=O)N[C@@H](CO)C(=O)O)on2)cc1 (tested in a mixture with another compound) | 6.01 |
| COc1ccc2nccc([C@@H](O)CN3CCC(NC(=O)c4ccc(Cl)c(OC)c4)CC3)c2c1 | 6.10 |
| O=C(/C=C/c1ccc(Cl)cc1)NCCCCCN1CCCC(C(=O)Nc2ccc(Cl)cc2)C1 (stereo not drawn) | 5.98 |
| FC(F)(F)c1ccc2nccc(NN=CC=Cc3ccccc3)c2c1 | 5.99 |
| COc1ccc(CNc2ccnc(-n3cnc4cc(C)c(C)cc43)n2)cc1Cl | 6.57 |
| CCCCCCCN(CCCCCCC)CCNc1cc(C)nc2ccccc12 | 6.47 |

| Structure (SMILES) | pIC50 |
| --- | --- |
| Cc1[nH]c2ccc(O)cc2c1C1CCN(CC2CCC(NC(=O)/C=C/c3ccc(Cl)c(Cl)c3)CC2)CC1 (stereo not drawn) | 6.12 |
| O=C(NC(Cc1ccccc1)C(=O)O)c1cc(=O)c2ccccc2o1 (stereo not drawn) | 6.72 |
| CN(C)C(=S)N=Nc1c(O)[nH]c2ccccc12 | 5.98 |
| Clc1cc(Br)ccc1-c1ccc(CNCC2CCNCC2)o1 | 5.82 |
| CCn1c(Sc2ccc(C#N)c([N+](=O)[O-])c2)nnc1-c1cccc(Cl)c1 | 6.35 |
| CN(C)CCNc1ncnc2c1[nH]c1ccc(Cl)cc12 | 6.22 |
| N#Cc1ccc(N(CCOC(=O)c2ccc(Br)s2)Cc2ccccc2C(F)(F)F)cc1C(F)(F)F | 5.97 |
| N#Cc1ccc(-c2ccc(C(=O)NCCCCN3CCC(c4cn(CCO)c5ccccc45)CC3)cc2)cc1 | 6.02 |
| COc1ccc2nccc([C@@H](O)CN3CCC(NCc4cc5cc(OC(F)(F)F)ccc5[nH]4)CC3)c2c1 | 6.89 |
| COC(=O)c1cccc(CNCc2ccc(-c3ccc(-c4nc5ccc(F)cc5[nH]4)s3)cc2)c1 | 6.23 |
| Cc1cc(N(CCO)CCCN2CCCCC2)nc(Nc2ccc(Cl)cc2)n1 | 6.26 |
| O=C(C=Cc1ccc(Cl)c(Cl)c1)NCCCCCN1CCC(CCCNC(=O)c2ccc3c(c2)OCO3)CC1 | 6.82 |
| COc1ccc(-c2cc(C(F)(F)F)n3ncc(C(=O)Nc4cc(C)ccc4O)c3n2)cc1OC | 6.89 |
| COc1ccc(S(=O)(=O)N(CCCN2CCN(C)CC2)Cc2csc(-c3ccc(CNCc4ccccc4)cc3)n2)cc1 | 6.02 |
| Cc1cc(C)c(-c2n[nH]c3c2C(c2cccc(Cl)c2)N(Cc2ccco2)C3=O)c(O)c1 (stereo not drawn) | 6.00 |
| c1ccc(CN2CCN(c3cc(-c4cncc(-c5ccccc5)c4)nc(-c4ccccc4)n3)CC2)cc1 | 5.98 |
| COc1cc2nc(N3CCC(CNC(=O)c4ccc(OC(F)(F)F)cc4)CC3)nc(N)c2cc1OC | 6.66 |
| O=C(Nc1ccc(Cl)cc1)Nc1cccc(-c2cccc(-c3nc4ccc(C(F)(F)F)cc4[nH]3)c2)c1 | 6.64 |
| COc1ccc(CC2(c3ccc(F)cc3)N=C(N)N(CCCc3ccc4c(c3)OCO4)C2=O)cc1 (stereo not drawn) | 6.13 |
| COc1ccc(-c2cnc3[nH]cc(-c4ccncc4)c3c2)cc1OC | 6.89 |
| Cc1[nH]c(C)c(-c2ccc(-c3ccc(F)cc3)cc2)c(=O)c1Br | 5.97 |
| O=C(N[C@@H](CC1CCCCC1)C(=O)NC1CCCc2ccccc21)c1ccc(O)c(-c2ccc(Cl)c(Cl)c2)c1 (stereo partly drawn) | 6.70 |
| OCCN1CCN(Cc2ccc(-c3cccc(-c4nc5ccc(C(F)(F)F)cc5[nH]4)c3)cc2)CC1 | 6.19 |
| Cc1cc(C2CCN(CCCCNC(=O)c3ccc(-c4ccc(C(F)(F)F)cc4)cc3)CC2)c(C)cc1OCCOC1CCCCO1 (stereo not drawn) | 6.10 |
